# Key:
# Assay in all cases: Cerep selectivity profiling, receptor antagonism
# Assay type in all cases: biochemical
# Adenosine A2A = Adenosine A2A (Homo sapiens, UniProt P29274)
# Procedure: (§1) The pharmacological specificity of EUC-001 was assessed using the commercially available selectivity profiling services provided by Cerep (Celle l’Evescault, France). Initially, the activity of EUC-001, at a fixed concentration of 10 μM, was evaluated in a range of assays to assess pharmacological selectivity relative to other cell-surface receptors, ion channels and transport proteins. Where any significant binding was detected, further assays were performed to quantify potential non-selective activity. […] In terms of this non-specific activity, the IC50s are approximately 3.6 log units greater than that required for NK1R antagonism.
# (§2) The pharmacological specificity of EUC-001 was assessed using the commercially available selectivity profiling services provided by Cerep (Celle l’Evescault, France). For initial screens, the binding of EUC-001 (synthesized by Hoffmann-La Roche, Basel, Switzerland) at a fixed concentration of 10 μM was evaluated in a range of assays to assess pharmacological selectivity relative to other cell-surface receptors, ion channels and transport proteins.
# (§3) For agonist activity, results are expressed as a percentage of the control agonist response induced by the selective NK1R agonist [Sar^9, Met(O2)^11]-substance P (100 nM) for a range of concentrations of EUC-001. Antagonist activity is expressed as a percentage change in the response induced by 3 nM [Sar^9, Met(O2)^11]-SP (R&D systems) across a range of concentrations of EUC-001. The EC50 values (concentration producing a half-maximal specific response) and IC50 values (concentration causing a half-maximal inhibition of the control specific agonist response) were determined by non-linear regression analysis of the concentration–response curves generated with mean replicate values using Hill equation curve fitting (Y = D + [(A − D)/(1 + (C/C50)nH)], where Y = specific response, D = minimum specific response, A = maximum specific response, C = compound concentration, and C50 = EC50 or IC50, and nH = slope factor). This analysis was performed using custom software developed at Cerep and validated by comparison with data generated by the commercial software SigmaPlot® 4.0 for Windows® (SPSS Inc., Chicago, IL, USA). For the antagonists, the apparent dissociation constants (KB) were calculated using the modified Cheng Prusoff equation (KB = IC50/(1 + (A/EC50A)), where A = concentration of reference agonist in the assay, and EC50A = EC50 value of the reference agonist).
# Adenosine A3 = target: T1, Adenosine A3 (Homo sapiens, UniProt P0DMS8)
# T1 sequence (P0DMS8 1-318): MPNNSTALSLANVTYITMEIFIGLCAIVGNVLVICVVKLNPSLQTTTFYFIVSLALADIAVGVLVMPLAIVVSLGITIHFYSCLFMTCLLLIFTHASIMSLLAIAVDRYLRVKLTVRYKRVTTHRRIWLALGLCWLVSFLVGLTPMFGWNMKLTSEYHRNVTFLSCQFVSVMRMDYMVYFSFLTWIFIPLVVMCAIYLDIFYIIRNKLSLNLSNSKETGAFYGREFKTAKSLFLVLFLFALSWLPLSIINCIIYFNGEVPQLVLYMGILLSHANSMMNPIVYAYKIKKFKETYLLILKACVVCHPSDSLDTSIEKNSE
# Procedure: as §1, §2, §3
# Dopamine D1 = Dopamine D1 (Homo sapiens, UniProt P21728)
# Procedure: as §1, §2, §3
# Dopamine D2S = Dopamine D2S (Homo sapiens, UniProt P14416)
# Procedure: as §1, §2, §3
# Melanocortin MC4 = Melanocortin MC4 (Homo sapiens, UniProt P32245)
# Procedure: as §1, §2, §3
# [1] = target: T2, Muscarinic cholinergic M1 (Homo sapiens, UniProt P11229)
# T2 sequence (P11229 1-460): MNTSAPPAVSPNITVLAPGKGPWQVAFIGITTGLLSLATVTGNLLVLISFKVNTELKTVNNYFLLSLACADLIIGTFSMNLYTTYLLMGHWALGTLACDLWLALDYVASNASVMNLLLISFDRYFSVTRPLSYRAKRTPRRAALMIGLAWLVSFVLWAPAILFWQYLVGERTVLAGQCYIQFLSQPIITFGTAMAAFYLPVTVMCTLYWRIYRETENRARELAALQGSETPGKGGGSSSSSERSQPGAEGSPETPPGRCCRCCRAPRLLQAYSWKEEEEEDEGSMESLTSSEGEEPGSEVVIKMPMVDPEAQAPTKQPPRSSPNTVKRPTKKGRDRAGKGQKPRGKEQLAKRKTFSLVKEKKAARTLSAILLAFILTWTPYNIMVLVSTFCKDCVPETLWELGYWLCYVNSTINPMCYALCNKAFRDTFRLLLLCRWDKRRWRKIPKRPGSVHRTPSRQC
# Procedure: as §1, §2, §3
# [2] = target: T3, Muscarinic cholinergic M2 (Homo sapiens, UniProt P08172)
# T3 sequence (P08172 1-466): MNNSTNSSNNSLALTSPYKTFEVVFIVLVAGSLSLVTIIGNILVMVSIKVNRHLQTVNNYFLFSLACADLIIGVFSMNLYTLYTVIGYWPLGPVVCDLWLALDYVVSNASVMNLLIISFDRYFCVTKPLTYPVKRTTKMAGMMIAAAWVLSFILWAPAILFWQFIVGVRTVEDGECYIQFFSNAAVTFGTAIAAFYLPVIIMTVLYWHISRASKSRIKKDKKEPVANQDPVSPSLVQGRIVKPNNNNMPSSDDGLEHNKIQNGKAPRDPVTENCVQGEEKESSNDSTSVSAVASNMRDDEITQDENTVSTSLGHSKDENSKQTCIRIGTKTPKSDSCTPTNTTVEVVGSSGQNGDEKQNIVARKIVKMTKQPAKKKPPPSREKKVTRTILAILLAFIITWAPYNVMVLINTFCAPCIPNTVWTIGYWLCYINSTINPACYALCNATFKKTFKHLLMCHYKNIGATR
# Procedure: as §1, §2, §3
# [3] = target: Muscarinic cholinergic M3 (Homo sapiens, UniProt P20309)
# Procedure: as §1, §2, §3
# Serotonin 5-HT1B = Serotonin 5-HT1B (Homo sapiens, UniProt P28222); settings: Serotonin 5-HT1B antagonism
# Procedure: as §1, §2, §3
# Serotonin 5-HT2A = Serotonin 5-HT2A (Homo sapiens, UniProt P28223); settings: Serotonin 5-HT2A antagonism
# Procedure: as §1, §2, §3
# Serotonin 5-HT5A = Serotonin 5-HT5A (Homo sapiens, UniProt P47898); settings: Serotonin 5-HT5A antagonism
# Procedure: as §1, §2, §3
# Sequence of Serotonin 5-HT2A (P28223 whole entry): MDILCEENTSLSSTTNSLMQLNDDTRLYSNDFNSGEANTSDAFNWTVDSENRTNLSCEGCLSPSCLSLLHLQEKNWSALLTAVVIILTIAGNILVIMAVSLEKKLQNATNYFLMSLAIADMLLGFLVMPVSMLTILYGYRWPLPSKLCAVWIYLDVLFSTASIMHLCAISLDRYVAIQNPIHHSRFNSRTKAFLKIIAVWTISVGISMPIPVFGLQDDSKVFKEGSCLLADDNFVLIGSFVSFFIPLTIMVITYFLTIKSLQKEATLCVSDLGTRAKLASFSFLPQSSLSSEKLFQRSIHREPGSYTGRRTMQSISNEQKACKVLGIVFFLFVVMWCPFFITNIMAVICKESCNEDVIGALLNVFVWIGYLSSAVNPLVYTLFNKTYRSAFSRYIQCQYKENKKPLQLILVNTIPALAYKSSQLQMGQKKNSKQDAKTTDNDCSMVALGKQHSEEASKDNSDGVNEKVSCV
# Sequence of Serotonin 5-HT1B (P28222 whole entry): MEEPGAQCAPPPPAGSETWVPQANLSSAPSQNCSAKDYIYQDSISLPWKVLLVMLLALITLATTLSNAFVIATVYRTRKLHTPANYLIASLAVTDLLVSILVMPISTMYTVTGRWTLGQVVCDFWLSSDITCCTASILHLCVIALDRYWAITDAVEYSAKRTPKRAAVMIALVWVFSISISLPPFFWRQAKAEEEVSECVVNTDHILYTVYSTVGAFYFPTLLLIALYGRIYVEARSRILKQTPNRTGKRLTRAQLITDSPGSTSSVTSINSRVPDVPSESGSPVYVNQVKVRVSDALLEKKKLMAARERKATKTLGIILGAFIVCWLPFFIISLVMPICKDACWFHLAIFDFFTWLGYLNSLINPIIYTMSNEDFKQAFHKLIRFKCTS
# Sequence of Adenosine A2A (P29274 whole entry): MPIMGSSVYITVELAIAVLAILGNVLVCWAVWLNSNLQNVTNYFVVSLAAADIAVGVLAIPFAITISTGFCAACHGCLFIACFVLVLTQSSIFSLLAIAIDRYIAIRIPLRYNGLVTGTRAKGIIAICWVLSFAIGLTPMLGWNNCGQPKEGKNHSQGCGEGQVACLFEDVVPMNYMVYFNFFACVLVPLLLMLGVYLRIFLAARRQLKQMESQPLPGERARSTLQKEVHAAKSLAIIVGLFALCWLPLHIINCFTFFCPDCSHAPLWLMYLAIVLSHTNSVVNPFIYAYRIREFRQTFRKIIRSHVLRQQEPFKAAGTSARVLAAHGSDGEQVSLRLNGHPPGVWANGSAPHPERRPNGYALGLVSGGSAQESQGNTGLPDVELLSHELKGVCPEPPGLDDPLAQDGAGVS
# Sequence of Dopamine D1 (P21728 whole entry): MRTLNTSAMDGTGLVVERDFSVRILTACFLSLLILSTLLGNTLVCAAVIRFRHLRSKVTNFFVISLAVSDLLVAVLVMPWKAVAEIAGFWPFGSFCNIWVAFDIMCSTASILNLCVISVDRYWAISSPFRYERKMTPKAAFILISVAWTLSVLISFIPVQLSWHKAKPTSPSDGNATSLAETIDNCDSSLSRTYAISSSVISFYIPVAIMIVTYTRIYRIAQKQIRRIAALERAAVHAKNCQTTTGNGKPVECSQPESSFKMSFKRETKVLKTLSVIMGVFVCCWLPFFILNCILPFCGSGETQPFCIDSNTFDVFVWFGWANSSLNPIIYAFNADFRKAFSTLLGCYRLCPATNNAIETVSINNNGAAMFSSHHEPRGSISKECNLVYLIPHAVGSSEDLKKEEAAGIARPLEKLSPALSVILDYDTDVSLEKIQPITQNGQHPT
# Sequence of Dopamine D2S (P14416 1-414 isoform P14416-2): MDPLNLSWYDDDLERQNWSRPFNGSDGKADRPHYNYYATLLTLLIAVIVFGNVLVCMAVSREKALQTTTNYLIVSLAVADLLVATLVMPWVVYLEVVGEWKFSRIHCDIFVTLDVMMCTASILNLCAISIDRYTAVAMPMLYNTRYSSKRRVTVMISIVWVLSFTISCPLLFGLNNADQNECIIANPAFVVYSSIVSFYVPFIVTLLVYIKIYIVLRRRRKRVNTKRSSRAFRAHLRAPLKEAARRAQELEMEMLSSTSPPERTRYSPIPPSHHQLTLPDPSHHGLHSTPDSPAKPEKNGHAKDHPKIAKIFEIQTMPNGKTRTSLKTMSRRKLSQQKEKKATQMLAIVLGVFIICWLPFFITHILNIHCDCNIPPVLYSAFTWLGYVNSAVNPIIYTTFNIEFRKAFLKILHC
# Sequence of Muscarinic cholinergic M3 (P20309 whole entry): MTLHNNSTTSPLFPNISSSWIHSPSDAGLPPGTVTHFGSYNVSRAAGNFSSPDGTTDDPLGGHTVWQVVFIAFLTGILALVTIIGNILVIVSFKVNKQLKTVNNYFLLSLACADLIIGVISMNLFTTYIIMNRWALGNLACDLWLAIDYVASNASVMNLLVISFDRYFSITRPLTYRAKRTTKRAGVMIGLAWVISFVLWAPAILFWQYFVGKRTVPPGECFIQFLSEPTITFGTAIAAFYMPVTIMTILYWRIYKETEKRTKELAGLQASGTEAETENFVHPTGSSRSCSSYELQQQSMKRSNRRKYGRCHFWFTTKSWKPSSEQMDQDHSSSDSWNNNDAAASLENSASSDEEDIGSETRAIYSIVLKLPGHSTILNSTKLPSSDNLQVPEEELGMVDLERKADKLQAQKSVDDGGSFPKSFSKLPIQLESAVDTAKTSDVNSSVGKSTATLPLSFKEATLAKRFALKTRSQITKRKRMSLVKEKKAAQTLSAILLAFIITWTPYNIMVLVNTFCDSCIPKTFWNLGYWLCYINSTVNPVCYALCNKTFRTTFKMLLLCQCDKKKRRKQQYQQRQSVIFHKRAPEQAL
# Sequence of Melanocortin MC4 (P32245 whole entry): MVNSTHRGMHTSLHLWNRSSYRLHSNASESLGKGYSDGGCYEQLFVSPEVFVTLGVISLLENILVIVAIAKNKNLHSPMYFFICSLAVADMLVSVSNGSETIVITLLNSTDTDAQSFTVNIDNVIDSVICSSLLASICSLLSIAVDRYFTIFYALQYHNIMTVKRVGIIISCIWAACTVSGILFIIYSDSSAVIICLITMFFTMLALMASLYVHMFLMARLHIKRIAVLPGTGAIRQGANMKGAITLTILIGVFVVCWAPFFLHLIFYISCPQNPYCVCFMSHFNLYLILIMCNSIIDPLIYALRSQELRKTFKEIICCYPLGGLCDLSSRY
# Sequence of Serotonin 5-HT5A (P47898 whole entry): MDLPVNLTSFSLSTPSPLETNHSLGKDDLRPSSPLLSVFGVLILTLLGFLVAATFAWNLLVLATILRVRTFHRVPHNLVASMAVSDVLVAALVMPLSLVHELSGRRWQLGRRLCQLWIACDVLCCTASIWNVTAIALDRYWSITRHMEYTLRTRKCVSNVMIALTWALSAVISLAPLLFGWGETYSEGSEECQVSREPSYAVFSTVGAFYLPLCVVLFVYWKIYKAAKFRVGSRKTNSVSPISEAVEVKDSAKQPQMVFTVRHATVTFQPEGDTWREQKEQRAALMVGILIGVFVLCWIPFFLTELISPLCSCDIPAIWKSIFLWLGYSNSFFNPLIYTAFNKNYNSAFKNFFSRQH
compound,measurement,setting,value
"Cc1ccccc1-c1cc(N2CCN(C)CC2)ncc1C(=O)N(C)Cc1cc(C(F)(F)F)cc(C(F)(F)F)c1 [EUC-001, N-(3,5-Bis-trifluoromethyl-benzyl)-N-methyl-6-(4-methyl-piperazine-1-yl)-4-o-tolyl-nicotinamide]",IC50,Adenosine A2A,30 µM
same,IC50 (M),Adenosine A3,Not calculable
same,IC50,Dopamine D1,16 µM
same,IC50 (M),Dopamine D2S,Not calculable
same,IC50,Melanocortin MC4,13 µM
same,IC50,[1],3.3 µM
same,IC50,[2],30 µM
same,IC50,[3],3.3 µM
same,IC50,Serotonin 5-HT1B,6.1 µM
same,IC50,Serotonin 5-HT2A,15 µM
same,IC50,Serotonin 5-HT5A,4 µM

# Reference: paper PMC10970734, “Identification of an Intravenous Injectable NK1 Receptor Antagonist for Use in Traumatic Brain Injury” (International Journal of Molecular Sciences, 2024)
